Test results reported in a melting point compilation (Tetko et al.).

With CN1CCC23C(=O)CC4C(=CCOC5CC(=O)N(c6c(O)cccc62)C3C54)C1 (stereo not drawn) as the compound, how does the melting point read?
The melting point was 282 °C.

Which melting point does the source give for CCCCCCCCC(O)C(O)CCCCCCCC(=O)O (stereo not drawn) here?
The melting point was 90 °C.

With CC1(C)SC2C(NC(=O)COc3ccccc3)C(=O)N2C1C(=O)O (stereo not drawn) as the compound, how does the melting point read?
Its melting point is 124 °C.

For NC(Cc1ccc(F)cc1Cl)=NO, which melting point is on record?
The melting point was 146 to 147 °C.

For O=c1ccn(C2CC(O)C(CO)O2)c(=O)[nH]1 (stereo not drawn), which melting point is on record?
Its melting point is 166 °C.

Which melting point does the source give for COc1ccc(C(=O)Cl)cc1OC here?
The melting point was 71 °C.

Which melting point does the source give for C1COCCOCCOCCN1 here?
The melting point was 53 to 55 °C.

For Cc1noc(-c2ccc(C(=O)Cl)cc2)n1, which melting point is on record?
The melting point was 115 to 117 °C.

Which melting point does the source give for CC(=O)c1c(-c2cccc(Cl)c2Cl)noc1C here?
Its melting point is 62 to 64 °C.

For CCOc1ccc2nc3cc(N)ccc3c(N)c2c1, which melting point is on record?
The melting point was 226 °C.

Which melting point does the source give for COc1cc2c(cc1OC)C(=O)C(CC1CCN(Cc3ccccc3)CC1)C2 (stereo not drawn) here?
The melting point was 207 °C.

For CC(=O)CC(O)C(Cl)(Cl)Cl (stereo not drawn), which melting point is on record?
Its melting point is 75 to 76 °C.

With CCOC(=O)C(C(N)=S)=C1NN=C(c2ccc(Cl)cc2)O1 as the compound, how does the melting point read?
Its melting point is 174 to 177 °C.

Which melting point does the source give for CCO[Si](Cl)(Cl)Cl here?
Its melting point is -135 °C.

With C=C(C)C(=O)OCC as the compound, how does the melting point read?
Its melting point is -60 °C.

Which melting point does the source give for O=C(F)c1ccccc1 here?
Its melting point is -28 °C.

With Nc1c(Cl)ncnc1Cl as the compound, how does the melting point read?
Its melting point is 145 °C.

With COc1cc2c(cc1OC)C(=O)C2 as the compound, how does the melting point read?
The melting point was 141 °C.

With O=S(=O)(O)c1cccc2cnccc12 as the compound, how does the melting point read?
Its melting point is 300 °C.

With O=C(O)c1cccc2c1Cc1ccccc1-2 as the compound, how does the melting point read?
Its melting point is 247 °C.

With COc1cc2c(cc1OC)C(C(=O)O)C2 (stereo not drawn) as the compound, how does the melting point read?
The melting point was 134 to 143 °C.

Which melting point does the source give for CC1(C)C(C=C(Br)Br)C1C(=O)OC(C#N)c1cccc(Oc2ccccc2)c1 (stereo not drawn) here?
The melting point was 100 °C.

For N#CCc1ccc(Oc2ccc([N+](=O)[O-])cn2)cc1, which melting point is on record?
Its melting point is 118 to 119 °C.

With O=C(O)c1ccc2c(c1)C(=O)c1ccccc1-2 as the compound, how does the melting point read?
Its melting point is 341 °C.

For O=C(O)C1OC(O)C(O)C(O)C1O (stereo not drawn), which melting point is on record?
The melting point was 158 to 162 °C.

With Nc1c(Br)cccc1Br as the compound, how does the melting point read?
Its melting point is 87.5 °C.

With Nc1ccc(N)cc1 as the compound, how does the melting point read?
Its melting point is 146 °C.

Which melting point does the source give for O=C(Cl)C1=Cc2cc(Cl)ccc2OC1 here?
The melting point was 92 to 94 °C.

With COS(=O)(=O)Cl as the compound, how does the melting point read?
The melting point was -70 °C.

For COC(=O)c1ccc([N+](=O)[O-])c(O)c1, which melting point is on record?
Its melting point is 91 °C.

For CC1COC(Cn2cncn2)(c2ccc(Oc3ccc(Cl)cc3)cc2Cl)O1 (stereo not drawn), which melting point is on record?
Its melting point is 76 °C.

With C/C(Cc1ccccc1)=N\NC(N)=O as the compound, how does the melting point read?
The melting point was 189 °C.

For C=CC(=O)NC(C)(C)CS(=O)(=O)O, which melting point is on record?
Its melting point is 195 °C.

For CN(C)S(=O)N(C)C, which melting point is on record?
Its melting point is 31 °C.

Which melting point does the source give for CC(=O)OC(=CC=C(OC(C)=O)c1ccccc1)c1ccccc1 here?
The melting point was 174 to 176 °C.

For ON=CC1=C(C#Cc2ccccc2)CCC1, which melting point is on record?
Its melting point is 105 to 106 °C.

Which melting point does the source give for Nc1ccccc1C=Cc1cc(/C=C/c2ccccc2)c(N)cc1N here?
The melting point was 146 °C.

For O=C(O)c1cnccn1, which melting point is on record?
The melting point was 222 to 225 °C.

With O=[N+]([O-])c1ccc(S(=O)(=O)OCc2ccccc2OS(=O)(=O)c2ccc([N+](=O)[O-])cc2)cc1 as the compound, how does the melting point read?
Its melting point is 204 to 206 °C.

Which melting point does the source give for CC12CCC3C(CCC4CC(C[N+](=O)[O-])=CCC43C)C1CCC2O (stereo not drawn) here?
Its melting point is 129 °C.

Which melting point does the source give for Cc1c(NC(C)C)c(=O)n(-c2ccccc2)n1C here?
The melting point was 80 °C.

For CCCCCCCCCCCCCC(=O)OC(=O)CCCCCCCCCCCCC, which melting point is on record?
The melting point was 53.4 °C.

For CC(=O)Oc1ccc([N+](=O)[O-])cc1[N+](=O)[O-], which melting point is on record?
The melting point was 69 to 75 °C.

Which melting point does the source give for CC12CCC(=O)C=C1CCC1C3CCC(O)(C(=O)CO)C3(C)CC(O)C12F (stereo not drawn) here?
Its melting point is 261 °C.

For CCCCCCC(C)CCC (stereo not drawn), which melting point is on record?
The melting point was -77.5 °C.

With CCCCCCCCC1CCCC1 as the compound, how does the melting point read?
The melting point was -44 °C.

With CC(=O)OCC1=C(C(=O)O)N2C(=O)C(N)C2SC1 (stereo not drawn) as the compound, how does the melting point read?
Its melting point is 300 °C.

For CCC(=O)NC, which melting point is on record?
Its melting point is -30.9 °C.

Which melting point does the source give for Cc1ccc(C=C[N+](=O)[O-])cc1 here?
Its melting point is 96 to 99 °C.

Which melting point does the source give for CC1(C)CC(O)CC(C)(CN)C1 (stereo not drawn) here?
Its melting point is 45.5 °C.

For O=C(CCl)Oc1ccccc1, which melting point is on record?
The melting point was 44.5 °C.

With CC(=O)Oc1cccc(N=Nc2cccc(OC(C)=O)c2)c1 as the compound, how does the melting point read?
The melting point was 144 °C.

With N#Cc1ccccc1CN1CCOCC1 as the compound, how does the melting point read?
Its melting point is 49 to 50 °C.
